{"source": "patent US5914339A", "about": "“Substituted 1,3-benzodioxoles” (American Home Products Corporation, priority 1997, dated 1999)", "key": {"plasma glucose": {"test_system": "plasma glucose", "assay": "Effects on hyperglycemia in db/db mice, plasma glucose", "format": "in vivo, mouse (male, db/db (C57BL/KsJ))", "conditions": "Mus musculus, po, 96 h; p.o., 4 days, mean of 2 and 4 h values on Day 4; footnote c gives mg/kg/day; read-out: db/db Mice Plasma Glucose: ED50 for lowering of plasma glucose"}, "[1]": {"molecular_target": "human β2 adrenergic receptor (Homo sapiens, UniProt P07550)", "assay": "cell-based", "conditions": "for activation at 0.01 µM: 10 min, read-out: β2: % of isoproterenol activity (increase in cAMP)", "outline": "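CHO cells transfected with human β1 or β2 adrenergic receptors were grown to confluence and exposed to compound at 10 nM for 10 min at 37° C. Cellular cAMP was measured by scintillation proximity assay. Activity is expressed as % of the response to 10 μM isoproterenol; EC50 (μM) was determined for selected compounds.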"}, "plasma free fatty acids": {"test_system": "plasma free fatty acids", "assay": "Effects on plasma free fatty acid levels in rats", "format": "in vivo, rat", "conditions": "for ED50: Rattus norvegicus, 50 min, read-out: Rat Free Fatty Acid: ED50", "method": "Rats respond to a single oral dose of β3 agonists by increasing plasma free fatty acids (FFA) in response to β3 receptor stimulation on the plasma membrane of the fat cell. 5-{2-[2-(3-Chloro-phenyl)-2-hydroxy-ethylamino]-propyl}-benzo[1,3]dioxole- 2,2-dicarboxylic acid diisopropyl ester (Standard 2) was used as a standard compound. All test compounds were dosed at 0.1 mg/kg and compared to the response by Standard 2.\n1). Drugs were dissolved in DMSO at 10 mg/ml.\n2). Twenty μl of the DMSO-drug solution was added to 10 mL methyl cellulose:tween-80 (0.5%:0.1%) for a final concentration of 20 μg/mL.\n3). Methyl cellulose:tween-80 drug suspension was given via gavage (1 mL/200 g body weight; or 0.1 mg/kg) to rats and blood was collected 50 min later.\n4). Plasma was analyzed for free fatty acids using a kit supplied by Biochemical Diagnostics Inc. (Brentwood, N.Y.).\n5). Drug response was calculated from the formula below. [formula]\n^b Elevation of plasma free fatty acids in rats, compounds tested at\n0.1 mg/kg, results expressed as % of\n5{2[2(3-Chloro-phenyl)-2-hydroxy-ethylaminopropylbenzo[1,3dioxole-2,2-dic\nrboxylic acid diisopropyl ester response (78% increase) at 0.1 mg/kg.\nED50 (mg/kg) values determined for selected compounds."}, "[2]": {"molecular_target": "human β1 adrenergic receptor (Homo sapiens, UniProt P08588)", "sequence (P08588 whole entry)": "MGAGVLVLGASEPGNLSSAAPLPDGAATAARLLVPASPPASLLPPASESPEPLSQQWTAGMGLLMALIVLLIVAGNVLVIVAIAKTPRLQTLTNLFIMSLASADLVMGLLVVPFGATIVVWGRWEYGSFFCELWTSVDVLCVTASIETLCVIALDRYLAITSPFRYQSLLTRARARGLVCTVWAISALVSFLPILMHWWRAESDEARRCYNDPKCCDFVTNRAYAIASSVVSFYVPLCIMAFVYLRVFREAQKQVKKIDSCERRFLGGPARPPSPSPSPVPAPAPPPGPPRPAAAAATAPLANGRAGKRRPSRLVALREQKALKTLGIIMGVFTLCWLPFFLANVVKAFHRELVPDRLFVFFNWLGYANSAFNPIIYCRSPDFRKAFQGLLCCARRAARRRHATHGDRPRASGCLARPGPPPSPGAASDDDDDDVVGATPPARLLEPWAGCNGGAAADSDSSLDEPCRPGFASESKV", "assay": "Human β1 adrenergic receptor agonist activity, cAMP increase in transfected CHO cells", "format": "cell-based", "method": "(§1) The activity of the test compounds on human β-adrenergic receptors was determined with Chinese hamster ovary (CHO) cells transfected with human β2, or β1 adrenergic receptors. Agonist activity is indicated by increased cAMP levels in the CHO cells. Selectivity of the test compounds for the β3 receptor was assessed by comparison with results in β2 and β1 adrenergic receptor transfected cells.\n1). Chinese hamster ovary (CHO) cells transfected with human β2, or β1 adrenergic receptors were used in the assay.\n2). Cells were grown to confluent conditions in 24 well plates.\n3). Drugs were dissolved in DMSO at a concentration of 10 μM.\n4). Cells were incubated with drug at 10 nM concentration for 10 min at 37° C.\n5). Cell cAMP concentrations were assayed using a scintillation proximity assay kit from Amersham Corp., Chicago, Ill.\n6). Activities for the test compounds are expressed as a percentage of the isoproterenol response.\nProduction of the CHO cells transfected with human β2, or β1 adrenergic receptors, and compound test procedures utilizing the CHO cells, are described by Emorine et al. in their article \"Molecular Characterization of the Human Beta3 -Adrenergic Receptor\", Science 1989, 245(8), 1118-1121 and by Muzzin et al. in the article \"An Adipose Tissue-Specific Beta3 -Adrenergic Receptor\", J. Biol. Chem.1991, 266, 24053-24058.\n^a Human β receptors expressed in Chinese hamster ovary cells,\ncompounds tested at 10 nM, results expressed as % of isoproterenol\nactivity (increase in cAMP) at 10 μM. EC50 (μM) values\ndetermined for selected compounds."}, "[3]": {"test_system": "human β-adrenergic receptors", "assay": "cAMP elevation in all 3 transfected CHO cell types", "format": "cell-based", "conditions": "10 μM, all 3 cell types", "method": "as §1\n4). […]"}, "[4]": {"conditions": "cAMP in CHO cells, selected compounds, read-out: β2: EC50"}, "[5]": {"conditions": "elevation of plasma free fatty acids, oral gavage, selected compounds"}, "[6]": {"conditions": "cAMP in CHO cells, selected compounds, read-out: β1: EC50"}, "[7]": {"conditions": "compounds tested at 10 nM, isoproterenol at 10 μM, CHO cells, 10 min at 37° C"}}, "note": "Read-outs that look alike come from different tables or passages of the source.", "data": [{"compound": "CC(C)CCOC(=O)C1(C(=O)OCCC(C)C)Oc2ccc(C[C@@H](C)NC[C@H](O)c3cccc(Cl)c3)cc2O1", "note": "[Example 75, 5-{(2R)-2-[(2R)-2-(3-Chloro-phenyl)-2-hydroxy-ethylamino]-propyl}-benzo[1,3]dioxole-2,2-dicarboxylic acid bis-(3-methylbutyl)ester]", "values": [{"measurement": "ED50", "setting": "plasma glucose", "result": 0.11, "unit": "mg/kg"}, {"measurement": "EC50", "setting": "[1]; [4]", "result": 58, "unit": "nM"}, {"measurement": "ED50", "setting": "plasma free fatty acids; [5]", "result": 0.026, "unit": "mg/kg"}, {"measurement": "EC50", "setting": "[2]; [6]", "result": 5400, "unit": "nM"}]}, {"compound": "CC(Cc1ccc2c(c1)OC(C(=O)OCCc1ccsc1)(C(=O)OCCc1ccsc1)O2)NCC(O)c1cccc(Cl)c1", "note": "(stereo not drawn) [Example 71, 5-{2-[2-(3-Chloro-phenyl)-2-hydroxy-ethylamino]-propyl}-benzo[1,3]dioxole-2,2-dicarboxylic acid bis 2-(3-Thienyl)ethyl-ester]", "values": [{"measurement": "activation at 0.01 µM", "setting": "[1]; [7]", "result": 14, "unit": "%"}, {"measurement": "ED50", "setting": "plasma free fatty acids; [5]", "result": 0.076, "unit": "mg/kg"}]}, {"compound": "CC(Cc1ccc2c(c1)OC(C(=O)OC(C)C)(C(=O)OC(C)C)O2)NCC(O)c1cccc(Cl)c1", "note": "(stereo not drawn) [5-{2-[2-(3-Chloro-phenyl)-2-hydroxy-ethylamino]-propyl}-benzo[1,3]dioxole-2,2-dicarboxylic acid diisopropyl ester, reference compound]", "values": [{"measurement": "increase of plasma free fatty acids", "setting": "plasma free fatty acids; 0.1 mg/kg, rats", "result": 78, "unit": "%"}]}, {"compound": "CC(Cc1ccc2c(c1)OC(C(=O)OCCOC(C)C)(C(=O)OCCOC(C)C)O2)NCC(O)c1cccc(Cl)c1", "note": "(stereo not drawn) [Example 21, 5-{2-[2-(3-Chloro-phenyl)-2-hydroxy-ethylamino]-propyl}-benzo[1,3]dioxole-2,2-dicarboxylic acid bis-(2-isopropoxy-ethyl) ester]", "values": [{"measurement": "activation at 0.01 µM", "setting": "[1]; [7]", "result": 2, "unit": "%"}, {"measurement": "ED50", "setting": "plasma free fatty acids; [5]", "result": 0.086, "unit": "mg/kg"}]}, {"compound": "C[C@H](Cc1ccc2c(c1)OC(C(=O)O)(C(=O)OCC(C)(C)C)O2)NC[C@H](O)c1cccc(Cl)c1", "note": "(stereo partly drawn) [Example 80, 5-{(2R)-2-[(2R)-2-(3-Chloro-phenyl)-2-hydroxy-ethylamino]-propyl}-benzo[1,3]dioxole-2,2-dicarboxylic acid (2,2-dimethyl-propyl)ester]", "values": [{"measurement": "EC50", "setting": "[1]", "result": 55, "unit": "nM"}, {"measurement": "EC50", "setting": "[2]", "result": 2400, "unit": "nM"}]}, {"compound": "C[C@H](Cc1ccc2c(c1)OC(C(=O)OCC(C)(C)C)(C(=O)OCC(C)(C)C)O2)NC[C@H](O)c1cccc(Cl)c1", "note": "[Example 78, 5-{(2R)-2-[(2R)-2-(3-Chloro-phenyl)-2-hydroxy-ethylamino]-propyl}-benzo[1,3]dioxole-2,2-dicarboxylic acid bis-(2,2-dimethyl-propyl) ester]", "values": [{"measurement": "ED50", "setting": "plasma glucose", "result": 0.028, "unit": "mg/kg"}, {"measurement": "EC50", "setting": "[1]; [4]", "result": 325, "unit": "nM"}, {"measurement": "ED50", "setting": "plasma free fatty acids; [5]", "result": 0.027, "unit": "mg/kg"}, {"measurement": "EC50", "setting": "[2]; [6]", "result": 5000, "unit": "nM"}]}, {"compound": "CC(Cc1ccc2c(c1)OC(C(=O)OCC1CCC1)(C(=O)OCC1CCC1)O2)NCC(O)c1cccc(Cl)c1", "note": "(stereo not drawn) [Example 40, 5-{2-[2-(3-Chloro-phenyl)-2-hydroxy-ethylamino]-propyl}-benzo[1,3]dioxole-2,2-dicarboxylic acid bis-cyclobutylmethyl ester]", "values": [{"measurement": "EC50", "setting": "[1]; [4]", "result": 420, "unit": "nM"}, {"measurement": "ED50", "setting": "plasma free fatty acids; [5]", "result": 0.071, "unit": "mg/kg"}, {"measurement": "EC50", "setting": "[2]; [6]", "result": 8400, "unit": "nM"}]}, {"compound": "CC(Cc1ccc2c(c1)OC(C(=O)OCC[Si](C)(C)C)(C(=O)OCC[Si](C)(C)C)O2)NCC(O)c1cccc(Cl)c1", "note": "(stereo not drawn) [Example 31, 5-{2-[2-(3-Chloro-phenyl)-2-hydroxy-ethylamino]-propyl}-benzo[1,3]dioxole-2,2-dicarboxylic acid bis-(2-trimethylsilanyl-ethyl) ester]", "values": [{"measurement": "activation at 0.01 µM", "setting": "[1]; CHO", "result": 5, "unit": "%"}, {"measurement": "ED50", "setting": "plasma free fatty acids; po", "result": 0.09, "unit": "mg/kg"}]}, {"compound": "CC(Cc1ccc2c(c1)OC(C(=O)OCC1CC1)(C(=O)OCC1CC1)O2)NCC(O)c1cccc(Cl)c1", "note": "(stereo not drawn) [Example 38, 5-{2-[2-(3-Chloro-phenyl)-2-hydroxy-ethylamino]-propyl}-benzo[1,3]dioxole-2,2-dicarboxylic acid bis-cyclopropylmethyl ester]", "values": [{"measurement": "EC50", "setting": "[1]; [4]", "result": 274, "unit": "nM"}, {"measurement": "ED50", "setting": "plasma free fatty acids; [5]", "result": 0.086, "unit": "mg/kg"}]}, {"compound": "Carbonic acid 3-chloro-benzyl ester 2-(3-chloro-benzyloxycarbonyloxy)-4-{2-[2-(3-chloro-phenyl)-2-hydroxy-ethylamino]-propyl}-phenyl ester [Example 15]", "values": [{"measurement": "β2: % of isoproterenol activity (increase in cAMP)", "setting": "[1]; [7]", "result": 18, "unit": "%"}, {"measurement": "Rat Free Fatty Acid: elevation of plasma free fatty acids, % of diisopropyl ester (Standard 2) response", "setting": "plasma free fatty acids; 0.1 mg/kg, gavage, blood collected 50 min later", "result": 46, "unit": "%"}]}, {"compound": "C[C@H](Cc1ccc2c(c1)OC(C(=O)O)(C(=O)OCCC(C)(C)C)O2)NC[C@H](O)c1cccc(Cl)c1", "note": "(stereo partly drawn) [Example 81, 5-{(2R)-2-[(2R)-2-(3-Chloro-phenyl)-2-hydroxy-ethylamino]-propyl}-benzo[1,3]dioxole-2,2-dicarboxylic acid (3,3-dimethylbutyl) ester]", "values": [{"measurement": "EC50", "setting": "[1]; [4]", "result": 59, "unit": "nM"}, {"measurement": "EC50", "setting": "[2]; [6]", "result": 380, "unit": "nM"}]}, {"compound": "CC(Cc1ccc2c(c1)OC(C(=O)OCCc1ccccc1)(C(=O)OCCc1ccccc1)O2)NCC(O)c1cccc(Cl)c1.Cl", "note": "(stereo not drawn) [Example 2, 5-{2-[2-(3-Chloro-phenyl)-2-hydroxy-ethylamino]-propyl}-benzo[1,3]dioxole-2,2-dicarboxylic acid diphenethyl ester hydrochloride salt]", "values": [{"measurement": "ED50", "setting": "plasma glucose", "result": 0.128, "unit": "mg/kg"}, {"measurement": "EC50", "setting": "[1]; [4]", "result": 22, "unit": "nM"}, {"measurement": "ED50", "setting": "plasma free fatty acids; [5]", "result": 0.071, "unit": "mg/kg"}]}, {"compound": "CC(C)NCC(O)c1ccc(O)c(O)c1", "note": "(stereo not drawn) [Isoproterenol]", "values": [{"measurement": "cAMP elevation", "setting": "[3]", "result": "maximal cAMP elevation"}]}, {"compound": "CC(Cc1ccc2c(c1)OC(C(=O)O)(C(=O)OCC1CCC1)O2)NCC(O)c1cccc(Cl)c1", "note": "(stereo not drawn) [Example 70, 5-{2-[2-(3-Chloro-phenyl)-2-hydroxy-ethylamino]-propyl}-benzo[1,3]dioxole-2,2-dicarboxylic acid cyclobutylmethyl ester]", "values": [{"measurement": "EC50", "setting": "[1]", "result": 48, "unit": "nM"}, {"measurement": "EC50", "setting": "[2]", "result": 3000, "unit": "nM"}]}, {"compound": "CC(Cc1ccc2c(c1)OC(C(=O)OCCC(C)(C)C)(C(=O)OCCC(C)(C)C)O2)NCC(O)c1cccc(Cl)c1", "note": "(stereo not drawn) [Example 33, 5-{2-[2-(3-Chloro-phenyl)-2-hydroxy-ethylamino]-propyl}-benzo[1,3]dioxole-2,2-dicarboxylic acid bis-(3,3-dimethyl-butyl) ester]", "values": [{"measurement": "ED50", "setting": "plasma glucose", "result": 0.201, "unit": "mg/kg"}, {"measurement": "EC50", "setting": "[1]; [4]", "result": 100, "unit": "nM"}, {"measurement": "ED50", "setting": "plasma free fatty acids; [5]", "result": 0.08, "unit": "mg/kg"}, {"measurement": "EC50", "setting": "[2]; [6]", "result": 5900, "unit": "nM"}]}, {"compound": "CC(C)CCOC(=O)C1(C(=O)O)Oc2ccc(C[C@@H](C)NC[C@H](O)c3cccc(Cl)c3)cc2O1", "note": "(stereo partly drawn) [Example 76, 5-{(2R)-2-[(2R)-2-(3-Chloro-phenyl)-2-hydroxy-ethylamino]-propyl}-benzo[1,3]dioxole-2,2-dicarboxylic acid (3-methylbutyl)ester]", "values": [{"measurement": "EC50", "setting": "[1]", "result": 74, "unit": "nM"}, {"measurement": "EC50", "setting": "[2]", "result": 980, "unit": "nM"}]}, {"compound": "CC(Cc1ccc2c(c1)OC(C(=O)OC(C)c1ccccc1)(C(=O)OC(C)c1ccccc1)O2)NCC(O)c1cccc(Cl)c1", "note": "(stereo not drawn) [Example 16, 5-{2-[2-(3-Chloro-phenyl)-2-hydroxy-ethylamino]-propyl}-benzo[1,3]dioxole-2,2-dicarboxylic acid bis-(1-phenyl-ethyl) ester]", "values": [{"measurement": "ED50", "setting": "plasma free fatty acids; [5]", "result": 0.128, "unit": "mg/kg"}]}]}
